Assays:
[1] = test system: latent HIV LTR; assay: Activation of latent HIV LTR in J-Lat/S-Lat latently infected cell lines (GFP reporter, FACS); type: cell-based, HIV-1; conditions: for de-repression / activation of latent HIV LTR: single agents, J-Lat/S-Lat or 1G5 cells, FIG. 5
Procedure: A) S-Lat 46, J-Lat P32, J-Lat A2, J-Lat 11.1, S-Lat 24, S-Lat 9 and […], and GFP expression was monitored by FACS analysis to determine activation of the latent LTR. B) J-Lat P32 and (C) S-Lat 30 Jurkats and SupT1 cell lines harbouring latently infected HIV were either untreated or treated with 2, 5 or 10 mM LiCl as indicated. Expression of HIV-LTR driven P24 and GFP, and endogenous Wnt target genes AXIN2, MMP9, TCF1, as well as control GAPDH and NFkB target genes TLR2 and ICAM1 was monitored by qRT-PCR 72 hours after treatment. Expression data are presented as fold induction normalized to Cyclophillin A control.
(§1) Expression data are presented as fold induction normalized to Cyclophillin A control.

[2] = test system: HIV LTR nucleosomes (DHS1, nuc-1); assay: PCR-based MNase mapping of latent HIV LTR nucleosome structure; type: cell-based
Text: The high resolution dynamic nucleosomal structure of latently integrated HIV LTR is mapped in presence or absence of Wnt stimulation.
It is an aspect of this invention that this synergistic effect on LTR nucleosome structure extends to other LTR de-repressors.

[3] = test system: latently infected PBMCs; assay: Primary PBMC latency model, HIV expression after treatment; type: cell-based; conditions: PBMCs infected with LTR-Tat-IRES-GFP virus, sorted five days after infection
Text: PBMCs were infected with VSV-G pseudotyped LTR-Tat-IRES-GFP virus particles and examined establishment of a latent phenotype, as in the cell line latency models (J-Lat/S-Lat). Briefly, PBMCs were Ficoll-purified from buffycoats of healthy donors, activated with phytohemagglutinin (PHA-L) and Interleukin-2 (IL-2), followed by virus infection. Five days after infection, GFP negative cells were sorted by FACS, placed in culture. […] Thus, even in the context of a fully activated T cell, integration of HIV at select sites will lead to the suppression of HIV transcription.

[4] = test system: NFkB target genes TLR2 and ICAM1; assay: qRT-PCR of NFkB target genes in latent HIV-infected Jurkat/SupT1 cell lines; type: cell-based
Procedure: as §1
(§2) Latent HIV-infected S-Lat 30 (A) and J-LatP32 (B) were treated with Wnt3A or control conditioned media. Relative mRNA expression levels of endogenous Wnt target genes AXIN2, ZCCHC12, TCF1, MMP9, the HIV P24 Gag and the LTR-reporter GFP, control (GAPDH) and NFkB target genes were quantitated by qRT-PCR. Expression data are presented as fold induction normalized to Cyclophillin A control.
(§3) A) S-Lat 46, J-Lat P32, J-Lat A2, J-Lat 11.1, S-Lat 24, S-Lat 9 and S-Lat 30 latently infected Jurkat and SupT1 cell lines were treated with Lithium Chloride (10 mM) for 2 hours, and GFP expression was monitored by FACS analysis to determine activation of the latent LTR. B) J-Lat P32 and (C) S-Lat 30 Jurkats and SupT1 cell lines harbouring latently infected HIV were either untreated or treated with 2, 5 or 10 mM LiCl as indicated. Expression of HIV-LTR driven P24 and GFP, and endogenous Wnt target genes AXIN2, MMP9, TCF1, as well as control GAPDH and NFkB target genes TLR2 and ICAM1 was monitored by qRT-PCR 72 hours after treatment. Expression data are presented as fold induction normalized to Cyclophillin A control.
as §2, with “In addition, latent” for “Latent”

[5] = test system: Wnt target genes AXIN2, TCF7(TCF1), MMP9, ZCCHC12, MMP2; assay: qRT-PCR of endogenous Wnt target genes in latent HIV-infected Jurkat/SupT1 cell lines; type: cell-based
Procedure: as §1, §2
as §3, with “B) J-Lat P32 and (C) S-Lat 30 Jurkats and SupT1 cell lines harbouring latently infected HIV were either untreated or treated with 2, 5 or 10 mM LiCl as indicated.” left out, “Expression data are presented as fold induction normalized to Cyclophillin A control.” left out
as §2, with “In addition, latent” for “Latent”, “Expression data are presented as fold induction normalized to Cyclophillin A control.” left out

[6] = test system: latent HIV (P24 Gag, LTR-reporter GFP); assay: qRT-PCR of HIV P24 Gag and LTR-reporter GFP mRNA in latent HIV-infected cell lines; type: cell-based
Text: (§4) A) Exogenous expression of S33Y β-catenin in S-Lat30 latent HIV infected cell line results in activation of TCF/LEF-driven TOPFLASH luciferase activity. […] S33Y β-catenin expression also results in a concomitant activation of latent HIV in S-Lat30 HIV infected cell line as quantitated by increased mRNA expression of HIV P24 Gag and the LTR-reporter GFP. Expression data are presented as fold induction normalized to Cyclophillin A control.
as §2
as §2, with “In addition, latent” for “Latent”, “control. […]” for “control.”

[7] = test system: TCF/LEF-driven TOPFLASH; assay: TCF/LEF-driven TOPFLASH luciferase reporter in S-Lat30; type: cell-based; conditions: exogenous expression (nucleofection) in S-Lat30; FIG. 6A
Text: as §4
For example, activation of the Wnt signaling pathway may be measured/quantitated by an increase In TCF-driven transcription in the cell after introduction of TOPFLASH (plasmid with tandem TCF/LEF consensus sites driving expression of the luciferase gene) into the cell via transfection/nucleofection. Increase in TOPFLASH (TCF-driven) and not FOPFLASH (TCF-mutant reporter) indicates activation of the Wnt signaling pathway.
S33Y β-catenin constitutively active mutant: Transfection (by nucleofection) of latent HIV infected cell lines with an expression vector for a constitutively active form of β-catenin, the molecular effector of the Wnt signaling pathway results in activation of latent HIV.

[8] = Wnt3A conditioned media, S-Lat 30 and J-LatP32, FIG. 7
[9] = exogenous expression in S-Lat30, FIG. 6B

In the case of `Cc1c[nH]c(-c2cnc(NCCNc3ccc(C#N)cn3)nc2-c2ccc(Cl)cc2Cl)n1` [CHIR-99021, 6-(2-(4-(2,4-Dichlorophenyl)-5-(4-methyl-1H-imidazol-2-yl)-pyrimidin-2-ylamino)ethyl-amino)-nicotinonitrile], the “activation of the latent LTR (GFP expression by FACS)” value ([1]; 1 μM, 24 hours, J-Lat P44, S-Lat 24, J-Lat P21, J-Lat 11.1, S-Lat 9, S-Lat 30, FIG. 8) is reported as “activation of the HIV LTR”.

For `CCCCCCCCCCCCCC(=O)O[C@@H]1[C@@H](C)[C@@]2(O)[C@@H](C=C(CO)C[C@]3(O)C(=O)C(C)=C[C@@H]23)[C@@H]2C(C)(C)[C@]12OC(C)=O` [PMA], the “loosely positioned nucleosomes over DHS1 (MNase mapping)” value ([2]; PMA stimulation) was “disappear” and the “HIV expression in GFP negative sorted infected PBMCs” value [3] was “activated HIV expression”.

With `CC(=O)O[C@@]12C[C@@H](C)[C@@]3(O)[C@@H](C=C(CO)C[C@]4(O)C(=O)C(C)=C[C@@H]34)[C@@H]1C2(C)C` [Prostratin] the “mRNA expression of NFkB target genes TLR2, ICAM1 (RT-PCR)” value ([4]; Lithium 1 mM-10 mM, Prostratin as positive control, FIG. 9) was “activation of the NFkB target genes TLR2 and ICAM”.

For `CCCC(CCC)C(=O)O` [VPA, valproic acid], the “remodelling of nuc-1 (MNase mapping)” value ([2]; co-treatment of VPA with Wnt stimulation) was “dramatic remodelling of the repressive nuc-1” and the “de-repression / activation of latent HIV LTR” value (shortened to “de-repression / activation”) [1] was “marginal activation”.

TNFa was tested, and the “HIV expression in GFP negative sorted infected PBMCs” value [3] was “activated HIV expression”.

With Wnt3A the “activation of NFkB target genes (qRT-PCR)” value [4, 8] was “not NFkB target genes”, the “activation of endogenous Wnt target genes (qRT-PCR)” value [5, 8] was “activates latent HIV and endogenous Wnt target genes” and the “de-repression / activation” value [1] was “de-repression of latent HIV LTR”. The “activation of latent HIV (P24 Gag and LTR-reporter GFP mRNA, qRT-PCR)” value [6, 8] was “activates latent HIV”.

B1: S33Y β-catenin: constitutively active β-catenin mutant, expressed from a nucleofected expression vector (protein, UniProt P35222 2-781, looked up, variant S33Y)
Catenin beta-1: ATQADLMELDMAMEPDRKAAVSHWQQQSYLDYGIHSGATTTAPSLSGKGNPEEEDVDTSQVLYEWEQGFSQSFTQEQVADIDGQYAMTRAQRVRAAMFPETLDEGMQIPSTQFDAAHPTNVQRLAEPSQMLKHAVVNLINYQDDAELATRAIPELTKLLNDEDQVVVNKAAVMVHQLSKKEASRHAIMRSPQMVSAIVRTMQNTNDVETARCTAGTLHNLSHHREGLLAIFKSGGIPALVKMLGSPVDSVLFYAITTLHNLLLHQEGAKMAVRLAGGLQKMVALLNKTNVKFLAITTDCLQILAYGNQESKLIILASGGPQALVNIMRTYTYEKLLWTTSRVLKVLSVCSSNKPAIVEAGGMQALGLHLTDPSQRLVQNCLWTLRNLSDAATKQEGMEGLLGTLVQLLGSDDINVVTCAAGILSNLTCNNYKNKMMVCQVGGIEALVRTVLRAGDREDITEPAICALRHLTSRHQEAEMAQNAVRLHYGLPVVVKLLHPPSHWPLIKATVGLIRNLALCPANHAPLREQGAIPRLVQLLVRAHQDTQRRTSMGGTQQQFVEGVRMEEIVEGCTGALHILARDVHNRIVIRGLNTIPLFVQLLYSPIENIQRVAAGVLCELAQDKEAAEAIEAEGATAPLTELLHSRNEGVATYAAAVLFRMSEDKPQDYKKRLSVELTSSLFRTEPMAWNETADLGLDIGAQGEPLGYRQDDPSYRSFHSGGYGQDALGMDPMMEHEMGGHHPGADYPVDGLPDLGHAQDLMDGLPPGDSNQLAWFDTDL
With B1 the “mRNA expression of control gene GAPDH and NFkb target genes TLR2 and ICAM1” value [4, 9] was “not control gene GAPDH, or the NFkb target genes TLR2 and ICAM1”, the “TCF-driven TOPFLASH luciferase activity” value [7] was “activation of TCF-driven TOPFLASH luciferase activity” and the “mRNA expression of endogenous Wnt target genes AXIN2, MMP2, TCF1, ZCCHC12, MMP9” value [5, 9] was “increased mRNA expression of the endogenous Wnt target genes”. The “mRNA expression of HIV P24 Gag and LTR-reporter GFP” value [6, 9] was “increased mRNA expression of HIV P24 Gag as well as the LTR-reporter GFP”.

B2: R-spondin: LGR ligand, 27 kDa protein, used as R-spondin1-conditioned medium from HEK293T (protein, UniProt Q2MKA7 21-263, looked up)
R-spondin-1: SRGIKGKRQRRISAEGSQACAKGCELCSEVNGCLKCSPKLFILLERNDIRQVGVCLPSCPPGYFDARNPDMNKCIKCKIEHCEACFSHNFCTKCKEGLYLHKGRCYPACPEGSSAANGTMECSSPAQCEMSEWSPWGPCSKKQQLCGFRRGSEERTRRVLHAPVGDHAACSDTKETRRCTVRRVPCPEGQKRRKGGQGRRENANRNLARKESKEAGAGSRRRKGQQQQQQQGTVGPLTSAGPA
modifications: conditioned medium
notes: LGR ligand, 27 kDa protein, used as R-spondin1-conditioned medium from HEK293T
B2 was tested, and the “de-repression / activation” value [1] was “de-repression of latent HIV LTR”.
